Measured values published in the METLIN SMRT retention time set (Domingo-Almenara et al. 2019).

Test: gradient 5% acetonitrile 3 min, to 50% in 2 min, to 85% in 15 min, held 3 min, 100 µL/min
Details: column: Zorbax Extend-C18 2.1 x 50 mm; eluents: water / acetonitrile, 0.1% formic acid
Outline: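 Using water and acetonitrile that each contained 0.1% formic acid, mixtures of ~100 pure standards were separated at 100 μL/min on a Zorbax Extend-C18 column (2.1 × 50 mm, 1.8 μm). The HPLC fed a quadrupole time-of-flight mass spectrometer working in positive and negative ionization mode, with dead and dwell volumes of 40 μL and 900 μL. Data were acquired over 3 months. Retention time was read from computationally picked adduct peaks after manual inspection of each.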

SMILES | RP-LC retention time [s]
O=C(N[C@H]1C[C@@H]2C[C@H]1N(C(=O)NCCc1ccccc1)C2)c1ccccc1 | 740
COc1cccc(CCC(=O)N2C[C@@H]3C[C@H](NC(=O)c4cccs4)[C@H]2C3)c1 | 728
CC(C)CNC(=O)CCn1c(=O)c2ccccc2n2c(=O)n(Cc3ccccc3)nc12 | 882
COc1cc(C(=O)NCC(c2cccs2)N2CCOCC2)c([N+](=O)[O-])cc1OC (stereo not given) | 565
CC(N)c1cccc(Cl)c1Cl (stereo not given) | 636
Cn1c(=O)c2cc(C(=O)Nc3ccccc3)cnc2n(-c2ccccc2)c1=O | 862
CCc1noc2nc(CCC(=O)NCCCN3CCN(CC)CC3)nc(N3CCCCC3)c12 | 595
Cc1noc(C)c1-c1ccc(S(=O)(=O)Nc2cccc(Cl)c2)cc1 | 966
COc1ccc(C)cc1NC(=O)C1CCN(S(=O)(=O)c2ccc3c(c2)CCCC(=O)N3)CC1 | 816
Cn1cccc(C(=O)Nc2nc3c(s2)CN(S(=O)(=O)C2CC2)CC3)c1=O | 645
COc1cc([C@@H]2c3cc4c(cc3[C@H](O)[C@@H](CO)[C@@H]2C(=O)NCCCc2ccccc2)OCO4)cc(OC)c1OC | 761
C[C@H]1CN(C(=O)c2nn(C)c3ccccc23)C[C@@H]1c1nc(-c2ccncc2)no1 | 864
Cc1ccc(NC(=O)Nc2cnn(-c3ncncc3N3CCOCC3)c2)cc1C | 674
CCn1cc(CC(=O)NCc2ccc(F)cc2F)c2cccnc21 | 723
O=S(=O)(Nc1cccnc1)c1cc(-c2nnc(-c3ccccc3)o2)ccc1F | 744
COC(=O)c1c(C)[nH]c(C(=O)N2CCC(CC(=O)NCc3ccc(OC(C)C)cc3)CC2)c1C | 812
CC(C)CNC(=O)C1Cn2cccc2C(=O)N1 (stereo not given) | 651

SMILES | RP-LC retention time [s]
O=C1C(=O)N(Cc2ccc(C(=O)N3CCOCC3)cc2)CCN1Cc1ccc(F)cc1 | 652
CCn1nc(CNC(=O)c2ccc(F)c(F)c2)c2ccccc21 | 896
CC(C)CN1CCn2cc(C(=O)NCc3ccc(F)cc3Cl)nc2C1 | 646
C#CC(c1ccccc1)(c1ccccc1)n1ccnc1 | 739
Cc1ccc2nsnc2c1NC(=O)Cn1c(-c2cncs2)nc2ccccc21 | 682
Cc1cccc(S(=O)(=O)N2CC3CN(C(=O)c4ccco4)CC(C2)O3)c1 | 933
CCCCN(C(=O)c1ccc(C)cc1)C1(C(=O)NCc2ccccc2)CCN(C(C)=O)CC1 | 901
CS(=O)(=O)N1CCC(CC(=O)NCCC2=CCCCC2)C1 (stereo not given) | 743
Cn1nc(C(=O)NCc2ccc3c(c2)OCO3)c2c1CCN(C(=O)c1ccco1)C2 | 725
Nc1cc(C2CCN(C(=O)c3cccc(F)c3)CC2)no1 | 658
CCOc1ccc(N2C(=O)C3N=NN(Cc4nc(-c5cccc(C(F)(F)F)c5)no4)C3C2=O)cc1 (stereo not given) | 1080
CN(C)C(=O)C1CCN(S(=O)(=O)Cc2ccc(Cl)cc2)CC1 | 746
COc1ccc(CNC2=NCCNC23CCN(S(=O)(=O)c2c(C)cc(C)cc2C)CC3)cc1 | 834
COc1cccc(S(=O)(=O)N2CCC(CN3CCCCCC3)CC2)c1 | 642
COc1cc(-c2nnc(-c3cccc(S(=O)(=O)N4CCOCC4)c3)o2)cc(OC)c1OC | 852
CCc1nc2cc(-c3noc(-c4cc(F)ccc4F)n3)ccc2o1 | 1180

Next, values leading:

RP-LC retention time [s] | SMILES
755 | Cc1cc(C)cc(-n2ccnc2SCC(=O)Nc2cc(C)on2)c1
1060 | Cc1cccc(Sc2nccnc2N2CCC(C(=O)NCc3ccccc3)CC2)c1
696 | COCCNC(=O)NCc1ccc2c(c1)N(C(=O)c1ccccc1)CC2
1100 | Cc1ccc(-c2cc3c(=O)n(Cc4noc(CN5CCc6ccccc65)n4)ccn3n2)cc1
1000 | CCn1cc(-c2nc(C)c(C(=O)Nc3ccccc3F)s2)c2cccnc21
705 | Cc1cc(C(=O)NCCN2CCN(c3cccc(C)c3C)CC2)n(-c2ccccc2)n1
872 | CC(C)n1c(N2CCN(C(=O)c3[nH]nc4c3CCc3ccccc3-4)CC2)cc(=O)n(C(C)C)c1=O
682 | O=C(NCCOc1ccc2nnc(-c3cccc(F)c3)n2n1)c1cc(=O)c2ccccc2o1
852 | Cc1nnc2ccc(-c3noc(Cc4ccccc4Cl)n3)cn12
900 | CCC(=O)N1CCc2sc(C(=O)N3CCN(c4cccc(Cl)c4)CC3)cc2C1
1120 | O=C(Nc1ccc2c(c1)OCCO2)c1c(O)c2cccnc2n(-c2ccc(F)cc2)c1=O
1000 | CCC(C)NC(=O)c1cnn(-c2ccc(-c3nc(C(C)C)no3)cn2)c1C (stereo not given)
942 | O=C(Nc1ccccc1C(F)(F)F)N1CCN(c2nc3c(F)cc(F)cc3s2)CC1
633 | Cc1ccc2nc(-c3ccc(O)cc3)c(Nc3ccc4c(c3)OCO4)n2c1
676 | COc1ccc(CNC(=O)CS(=O)(=O)c2cccs2)cc1
684 | COCCc1noc(-c2ccc(=O)n(CC(=O)NC3CCCCC3)c2)n1

RP-LC retention time [s] | SMILES
1000 | Cc1nc(-c2csc(S(=O)(=O)N3CCC(C(=O)N4CC=C(c5ccccc5)CC4)CC3)c2)no1
986 | CCOC(=O)c1sc(NC(=O)c2ccc(Br)cc2F)nc1C
704 | Cc1ccc2nc(NC(=O)CSc3nn4c(=O)c(C)nnc4s3)sc2c1
788 | COc1ccc(-c2c(C)noc2NC(C)=O)cc1S(=O)(=O)N1CCCCCC1
604 | COc1cc2c(cc1OC)C(C(=O)NCCN1CCOCC1)C(c1cccs1)N(C)C2=O (stereo not given)
848 | O=C(CN1C(=O)CCCc2cc(S(=O)(=O)N3CCCC3)ccc21)NC1CCCCCC1
968 | O=C(CSc1ccc(Cl)cc1)Nc1nnc(-c2cccc([N+](=O)[O-])c2)s1
667 | O=C(NCC1CCCO1)C1CCN(c2cnn(Cc3ccccc3)c(=O)c2)CC1 (stereo not given)
706 | CC(Cc1cccs1)NC(=O)c1cnccn1 (stereo not given)
737 | CCOC(=O)CNC(=O)NCc1cccn1Cc1ccccc1C
1140 | CCc1nc2cc(-c3noc(/C=C/c4ccc(OC)c(OC)c4)n3)ccc2o1
810 | C=CCN1C(=O)COc2ccc(-c3nc(NC(=O)c4ccncc4)sc3C)cc21
868 | CCCN(CC1CCOC1)S(=O)(=O)c1cc(F)ccc1OC (stereo not given)
892 | CCc1nc2onc(C)c2c(=O)n1CC(=O)NC1CCCc2ccccc21 (stereo not given)
582 | CC(C)N1C(=O)c2cccnc2Sc2cc(C(=O)N3CCN(C)CC3)ccc21
904 | CCn1cc(-c2nc(C)c(C(=O)NCc3cccc(OC)c3)s2)c2cccnc21
